# Species: Rattus norvegicus
# Assay: DrugMatrix - Regimen: Daily Repeat
# Assay type: toxicity, organism-based, Sprague-Dawley
# Design: regimen Daily Repeat, gender Male, age 6-8 weeks
# Settings: in vivo, ip, 0.5 mg/kg, route intraperitoneal, dose level High, vehicle 100 % SALINE; for ALANINE AMINOTRANSFERASE / ALBUMIN / ALKALINE PHOSPHATASE / ASPARTATE AMINOTRANSFERASE / BLOOD UREA NITROGEN / CHLORIDE / CHOLESTEROL / CREATINE PHOSPHOKINASE / CREATININE / GLUCOSE / LACTATE DEHYDROGENASE / LIPASE / PHOSPHORUS / POTASSIUM / SODIUM / TOTAL BILIRUBIN / TOTAL PROTEIN / URIC ACID: tissue Plasma
# [1] = 120 h, tissue Blood, time 5 day
sequence,measurement,setting,value
TRANSPLATIN,ABSOLUTE BASOPHIL,[1],86 cells/µL
same,ABSOLUTE EOSINOPHIL,[1],98 cells/µL
same,ABSOLUTE LYMPHOCYTE,[1],10800 cells/µL
same,ABSOLUTE MONOCYTE,[1],340 cells/µL
same,ABSOLUTE SEGMENTED NEUTROPHIL,[1],1910 cells/µL
same,BASOPHIL,[1],0.64%
same,EOSINOPHIL,[1],0.74%
same,ERYTHROCYTE COUNT,[1],7.41 x10E6/uL
same,HEMATOCRIT,[1],45.48%
same,HEMOGLOBIN,[1],14.92 G/DL
same,LEUKOCYTE COUNT,[1],13.36 x10E3/uL
same,LYMPHOCYTE,[1],80.42%
same,MEAN CORPUSCULAR HEMOGLOBIN,[1],20.12 pg
same,MEAN CORPUSCULAR HEMOGLOBIN CONCENTRATION,[1],32.8 G/DL
same,MONOCYTE,[1],2.5%
same,NEUTROPHIL,[1],14.94%
same,PLATELET COUNT,[1],1349 x10E3/uL
same,ALANINE AMINOTRANSFERASE,"120 h, time 5 day",30.2 u/L
same,ALBUMIN,"120 h, time 5 day",3.6 G/DL
same,ALKALINE PHOSPHATASE,"120 h, time 5 day",229 u/L
same,ASPARTATE AMINOTRANSFERASE,"120 h, time 5 day",82.8 u/L
same,BLOOD UREA NITROGEN,"120 h, time 5 day",15 mg/dL
same,CHLORIDE,"120 h, time 5 day",110 MEQ/L
same,CHOLESTEROL,"120 h, time 5 day",67.2 mg/dL
same,CREATINE PHOSPHOKINASE,"120 h, time 5 day",368.2 u/L
same,CREATININE,"120 h, time 5 day",0.52 mg/dL
same,GLUCOSE,"120 h, time 5 day",119 mg/dL
same,LACTATE DEHYDROGENASE,"120 h, time 5 day",67.6 u/L
same,LIPASE,"120 h, time 5 day",22.4 u/L
same,PHOSPHORUS,"120 h, time 5 day",9.94 mg/dL
same,POTASSIUM,"120 h, time 5 day",6.16 MEQ/L
same,SODIUM,"120 h, time 5 day",151.8 MEQ/L
same,TOTAL BILIRUBIN,"120 h, time 5 day",0.2 mg/dL
same,TOTAL PROTEIN,"120 h, time 5 day",6.2 G/DL
same,URIC ACID,"120 h, time 5 day",0.98 mg/dL
same,ABSOLUTE BASOPHIL,"[…], tissue Blood, time 14 day",68 cells/µL
same,ABSOLUTE EOSINOPHIL,"[…], tissue Blood, time 14 day",76 cells/µL
same,ABSOLUTE LYMPHOCYTE,"[…], tissue Blood, time 14 day",6430 cells/µL
same,ABSOLUTE MONOCYTE,"[…], tissue Blood, time 14 day",260 cells/µL
same,ABSOLUTE SEGMENTED NEUTROPHIL,"[…], tissue Blood, time 14 day",2460 cells/µL
same,BASOPHIL,"[…], tissue Blood, time 14 day",0.74%
same,EOSINOPHIL,"[…], tissue Blood, time 14 day",0.84%
same,ERYTHROCYTE COUNT,"[…], tissue Blood, time 14 day",7.71 x10E6/uL
same,HEMATOCRIT,"[…], tissue Blood, time 14 day",46.84%
same,HEMOGLOBIN,"[…], tissue Blood, time 14 day",15.04 G/DL
same,LEUKOCYTE COUNT,"[…], tissue Blood, time 14 day",9.33 x10E3/uL
same,LYMPHOCYTE,"[…], tissue Blood, time 14 day",69.2%
same,MEAN CORPUSCULAR HEMOGLOBIN,"[…], tissue Blood, time 14 day",19.52 pg
same,MEAN CORPUSCULAR HEMOGLOBIN CONCENTRATION,"[…], tissue Blood, time 14 day",32.1 G/DL
same,MONOCYTE,"[…], tissue Blood, time 14 day",2.7%
same,NEUTROPHIL,"[…], tissue Blood, time 14 day",26.14%
same,PLATELET COUNT,"[…], tissue Blood, time 14 day",1318.6 x10E3/uL
same,ABSOLUTE BASOPHIL,"[…], tissue Blood, time 28 day",120 cells/µL
same,ABSOLUTE EOSINOPHIL,"[…], tissue Blood, time 28 day",130 cells/µL
same,ABSOLUTE LYMPHOCYTE,"[…], tissue Blood, time 28 day",9640 cells/µL
same,ABSOLUTE MONOCYTE,"[…], tissue Blood, time 28 day",190 cells/µL
same,ABSOLUTE SEGMENTED NEUTROPHIL,"[…], tissue Blood, time 28 day",1790 cells/µL
same,BASOPHIL,"[…], tissue Blood, time 28 day",1.07%
same,EOSINOPHIL,"[…], tissue Blood, time 28 day",1.08%
same,ERYTHROCYTE COUNT,"[…], tissue Blood, time 28 day",8.68 x10E6/uL
same,HEMATOCRIT,"[…], tissue Blood, time 28 day",49.56%
same,LEUKOCYTE COUNT,"[…], tissue Blood, time 28 day",11.93 x10E3/uL
same,LYMPHOCYTE,"[…], tissue Blood, time 28 day",80.6%
same,MEAN CORPUSCULAR HEMOGLOBIN,"[…], tissue Blood, time 28 day",18.81 pg
same,MEAN CORPUSCULAR HEMOGLOBIN CONCENTRATION,"[…], tissue Blood, time 28 day",32.89 G/DL
same,MEAN CORPUSCULAR VOLUME,"[…], tissue Blood, time 28 day",57.13 fL
same,MONOCYTE,"[…], tissue Blood, time 28 day",1.64%
same,NEUTROPHIL,"[…], tissue Blood, time 28 day",15.11%
same,PLATELET COUNT,"[…], tissue Blood, time 28 day",1319.89 x10E3/uL
same,ALANINE AMINOTRANSFERASE,"[…], time 14 day",24.6 u/L
same,ALBUMIN,"[…], time 14 day",3.5 G/DL
same,ALKALINE PHOSPHATASE,"[…], time 14 day",202 u/L
same,ASPARTATE AMINOTRANSFERASE,"[…], time 14 day",78.6 u/L
same,BLOOD UREA NITROGEN,"[…], time 14 day",12.6 mg/dL
same,CHOLESTEROL,"[…], time 14 day",52.8 mg/dL
same,CREATINE PHOSPHOKINASE,"[…], time 14 day",180.2 u/L
same,CREATININE,"[…], time 14 day",0.58 mg/dL
same,GLUCOSE,"[…], time 14 day",120.4 mg/dL
same,LACTATE DEHYDROGENASE,"[…], time 14 day",80.8 u/L
same,LIPASE,"[…], time 14 day",54.4 u/L
same,POTASSIUM,"[…], time 14 day",5.82 MEQ/L
same,SODIUM,"[…], time 14 day",150.8 MEQ/L
same,TOTAL BILIRUBIN,"[…], time 14 day",0.3 mg/dL
same,TOTAL PROTEIN,"[…], time 14 day",6.48 G/DL
same,URIC ACID,"[…], time 14 day",0.98 mg/dL
same,ALANINE AMINOTRANSFERASE,"[…], time 28 day",35.44 u/L
same,ALBUMIN,"[…], time 28 day",3.69 G/DL
same,ALKALINE PHOSPHATASE,"[…], time 28 day",151 u/L
same,ASPARTATE AMINOTRANSFERASE,"[…], time 28 day",83 u/L
same,BLOOD UREA NITROGEN,"[…], time 28 day",14 mg/dL
same,CHLORIDE,"[…], time 28 day",108.89 MEQ/L
same,CHOLESTEROL,"[…], time 28 day",61.44 mg/dL
same,CREATINE PHOSPHOKINASE,"[…], time 28 day",144.22 u/L
same,CREATININE,"[…], time 28 day",0.58 mg/dL
same,GLUCOSE,"[…], time 28 day",132.22 mg/dL
same,LACTATE DEHYDROGENASE,"[…], time 28 day",67.22 u/L
same,LIPASE,"[…], time 28 day",45.22 u/L
same,PHOSPHORUS,"[…], time 28 day",9.38 mg/dL
same,SODIUM,"[…], time 28 day",151.78 MEQ/L
same,TOTAL BILIRUBIN,"[…], time 28 day",0.2 mg/dL
same,TOTAL PROTEIN,"[…], time 28 day",6.82 G/DL
same,URIC ACID,"[…], time 28 day",1.21 mg/dL
